Laboratory results as given in patent US5151264A, “Particulate vector useful in particular for the transport of molecules with biological activity and process for its preparation” (priority 1988, dated 1992).

Columns and labels:
[1] = Pharmacokinetics in plasma of free and encapsulated antibiotics in rabbits; type: in vivo, male rabbits of the "White New Zealand" type
Description: In order to evaluate the influence of the encapsulation on the pharmacokinetics of two antibiotics, butirosin according to Example 6 and erythromycin according to Example 13, we carried out the determination in plasma as a function of time for these two antibiotics after administration in the free form and in the encapsulated form.
The injections are given subcutaneously and intravenously to male rabbits of the "White New Zealand" type weighing approximately 3 kg. The samples are taken at the lateral vein of the ear in amounts of 200 μl of blood/sample. The blood is immediately centrifuged at 8000 rpm for 15 min. The serum is withdrawn and stored at 4° C. until used.
(§1) Butirosin, like erythromycin, is determined by measuring the lysis zones (agar cylinders method) in an agar medium (bioMerieux) inoculated with 1000 cfu/ml of Bacillus subtilis and incubated at 37° C. for 18 hours. The bioMerieux agar medium consists of 6 g of bio-Gelytone, 3 g of yeast extract, 1.5 g of beef extract and 15 g of agar per 1 l of distilled water. The pH of the medium is adjusted to 9.
(§2) The serum samples are deposited in the wells made in the agar medium (30 μl/well). Reference solutions representing known amounts of antibiotic are also deposited in the dish.
The amounts injected are 1 ml containing 9 mg of butirosin in the free or encapsulated form.
4 ml of a physiological solution containing 5 mg of butirosin either in the free form or encapsulated in 100 mg of BVSM are injected. The solution is prepared from 8 g/l NaCl, 0.2 g/l KCl, 0.1 g/l anhydrous CaC12 (sic), 0.1 g/l MgCl2, 3.18 g/l Na2 HPO4 and 0.2 g/l KH2 PO4, adjusted to pH 7.4.
The injections are made slowly in the external vein of the ear after vasodilatation with warm water and disinfection with ethanol at […].
The amounts injected are 1 ml containing 15 mg of free or encapsulated erythromycin. For reasons of solubility, free erythromycin is dissolved in a water/ethanol (85:15) mixture.

Bacillus subtilis = assay: Inhibition of Bacillus subtilis in agar medium / Petri dish (agar cylinders method); type: cell-based
Procedure: as §1, §2

[2] = Bacillus subtilis, 18 h, read-out: Diameter (standard range)

Compound | diffusion in the plasma / plasma level ([1]; erythromycin) | diffusion in the plasma / plasma level ([1]; erythromycin, listed as Free erythromycin) | zone of inhibition at 10 µg/mL (Bacillus subtilis; [2]) | zone of inhibition at 25 µg/mL (Bacillus subtilis; [2]) | zone of inhibition at 100 µg/mL (Bacillus subtilis; [2]) | zone of inhibition at 250 µg/mL (Bacillus subtilis; [2]) | zone of inhibition at 1000 µg/mL (Bacillus subtilis; [2]) | diffusion into the plasma and elimination ([1]; rabbit, in vivo, iv) | diffusion in the plasma / plasma level ([1]; rabbit, in vivo, sc) | time after which eliminated ([1]; rabbit, in vivo, sc) | Diameter (standard range) (Bacillus subtilis; 0.5 μg/ml) | Diameter (standard range) (Bacillus subtilis; 1 μg/ml) | Diameter (standard range) (Bacillus subtilis; 2 μg/ml) | Diameter (standard range) (Bacillus subtilis; 5 μg/ml) | Diameter (standard range) (Bacillus subtilis; 10 μg/ml) | Diameter (standard range) (Bacillus subtilis; 20 μg/ml) | Diameter (standard range) (Bacillus subtilis; 50 μg/ml)
CC[C@H]1OC(=O)[C@H](C)[C@@H](O[C@H]2C[C@@](C)(OC)[C@@H](O)[C@H](C)O2)[C@H](C)[C@@H](O[C@@H]2O[C@H](C)C[C@H](N(C)C)[C@H]2O)[C@](C)(O)C[C@@H](C)C(=O)[C@H](C)[C@@H](O)[C@]1(C)O [Erythromycin, erythromycin] | diffuses relatively slowly in the plasma | higher initial level to be achieved in the plasma than the encapsulated form | 26 mm | 29 mm | 31 mm | 33 mm | 37 mm |  |  |  |  |  |  |  |  |  | 
butirosin |  |  |  |  |  |  |  | diffuses very rapidly into the plasma and is also eliminated very rapidly | diffuses very rapidly in the plasma | 6 h | 14 mm | 17 mm | 19 mm | 22 mm | 24 mm | 26 mm | 28 mm
